Experimental findings from PubChem BioAssay (NCI) are described below.

Molecules are shown by their SMILES.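 How tested: cells in 96-well plates exposed to compound for 48 hours at five concentrations. GI50 marks 50% less growth. TGI denotes the concentration required for complete inhibition of growth.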 A value given as a limit tells only on which side of the number the result lay.

Some test systems named below: DMS 273 small cell lung; SNB-78 CNS; LXFL 529 NSCLC; DMS 114 small cell lung; BT-549 breast; T-47D breast; M19-MEL melanoma; MDA-N.
Assay in all cases: NCI tumour cell line growth inhibition, 48 h

On to `Cc1cc(N(CCC#N)S(C)(=O)=O)ccc1C=O`, for which the TGI in the assay with DMS 273 small cell lung, in the assay with SNB-78 CNS, in the assay on LXFL 529 NSCLC and in the assay on DMS 114 small cell lung was more than 100 µM throughout.
On to `CC(=O)c1ccc(NC(=O)CSc2nnc(-c3cc(-c4ccc(C)cc4)nc4ccccc34)o2)cc1`, for which, in the assay with BT-549 breast, the GI50 was 2.44 µM and the TGI was found to be 7.89 µM.
Take `CCCCCCCC/C=C/CCCCCCCC1=NCC[N+]1(CCO)CCO`: the GI50 in the assay on T-47D breast was 7.08 µM; with BT-549 breast, 3.17 µM. The TGI came out at 22.7 µM in the assay with T-47D breast and 10.8 µM in the assay with BT-549 breast.
As to `CC(C)(C)NN=C1C(C)(C)C(=NNC(C)(C)C)C1(C)C`, the TGI in the assay on DMS 273 small cell lung, with SNB-78 CNS, with LXFL 529 NSCLC, in the assay on DMS 114 small cell lung and with M19-MEL melanoma was more than 100 µM throughout.
For `CCN(CC)c1cc(/C=C/c2ccc(OC)c(OC)c2)nc2cc(F)c(F)cc12`, in the assay with T-47D breast, the GI50 is 3.38 µM and the TGI was determined as 18.4 µM. Further, in the assay on BT-549 breast, the GI50 is 2.03 µM and the TGI came to 5.28 µM.
The corresponding values for `COC(=O)c1ccc2c(c1)nc(-c1cc3ccccc3[nH]c1=O)n2-c1cc(C(C)(C)C)[nH]n1` are more than 100 µM, more than 100 µM, 4.88 µM and 66.2 µM.
Turning to `COc1cc(/C=C/c2cc(/C=C/c3ccc(O)c(OC)c3)n(-c3c(C)cccc3C)c(=O)n2)ccc1O`, in the assay with T-47D breast, the GI50 is 1.34 µM and the TGI came out at 4.25 µM.
`CCC(C)n1cc(C)c2c(C(=O)NCc3c(C)cc(C)[nH]c3=O)cc(Br)cc21` (stereo not drawn): in the assay on T-47D breast, the GI50 was 20 µM and the TGI amounted to 73.3 µM. Moreover, in the assay on BT-549 breast, the GI50 is 41.8 µM and the TGI is more than 100 µM.
In the case of `Cc1nc2sccn2c(=O)c1CCN1CCC(=C(c2ccc(F)cc2)c2ccc(F)cc2)CC1`, the GI50 was 11.7 µM in the assay with T-47D breast and 9.38 µM with BT-549 breast. Moreover, the TGI amounted to 28.9 µM in the assay with T-47D breast and 24.5 µM with BT-549 breast.
The corresponding values for `O=C1OCC(c2cccs2)=C1Cl` are 7.47 µM, 33.4 µM, more than 100 µM and more than 100 µM.
Take `O=C1C(Br)=CC2(C=C1Br)CCN=c1c2c(O)c2nc3ccccc3c3ccnc1c23`: the values for the GI50 in the assay on MDA-N, in the assay on T-47D breast and with BT-549 breast were 0.951 µM, 1.13 µM and 5.83 µM, respectively. The TGI in the assay on MDA-N came out at 2.22 µM; in the assay with T-47D breast, 3.76 µM; with BT-549 breast, 12.2 µM.
In the case of `CC(C)C1OC(=O)C=C1Sc1ccccc1` (stereo not drawn), the TGI with MDA-N, in the assay on T-47D breast and in the assay on BT-549 breast was more than 100 µM throughout.
With `COc1cc(NCCCCN=C(N)NC(N)=NC(C)C)c2ncccc2c1`, the values for the GI50 in the assay on T-47D breast and in the assay on BT-549 breast were 0.739 µM and 9.6 µM, respectively. In addition, the figures for the TGI in the assay with T-47D breast and in the assay on BT-549 breast were 8.2 µM and 23.9 µM, respectively.
For `Cc1ccc(-c2nc(SCC(=O)O)n[nH]2)cc1`, the TGI with DMS 273 small cell lung, in the assay on SNB-78 CNS, with LXFL 529 NSCLC, in the assay on DMS 114 small cell lung and with M19-MEL melanoma was more than 100 µM each time.
`O=[N+]([O-])c1ccc(-c2nc(-c3ccccc3)c(-c3ccccc3)n2-c2ccccc2)cc1`: in the assay with T-47D breast, the GI50 is 2.19 µM and the TGI is 7.29 µM. For the same compound, in the assay on BT-549 breast, the GI50 is 2.16 µM and the TGI came out at 6.53 µM.
The corresponding values for `Cc1cc2cc3cc(C)c(N(C)C)cc3nc2cc1N(C)C` are 1.6 µM, more than 100 µM, 4.26 µM and 15.6 µM.
On to `CCOC(=O)C(=O)Nc1c(F)cc(F)cc1Br`, for which the TGI in the assay on SNB-78 CNS, in the assay with LXFL 529 NSCLC, in the assay on DMS 114 small cell lung and in the assay on M19-MEL melanoma was more than 100 µM in each case.
`CCOC(=O)c1sc2nc3sc(N=Nc4ccc(Cl)cc4)c(O)n3c(=S)c2c1C`: in the assay with T-47D breast, the GI50 was 0.609 µM and the TGI was 21.9 µM.
The corresponding values for `ClC1=C(Cl)C(Cl)=C(Cl)C1=C/C=C/c1ccccc1` are 0.153 µM and 0.631 µM.
As for `COc1ccc(C(=O)c2ccc(OC)c(OC)c2OC)cc1`, in the assay on T-47D breast, the GI50 is 5.37 µM and the TGI was more than 100 µM. In the assay on BT-549 breast, the GI50 was 6.16 µM and the TGI is more than 100 µM.
Turning to `COc1ccc(/C=C2\CCCCC2=O)cc1`, the TGI in the assay with DMS 273 small cell lung, with SNB-78 CNS, in the assay on LXFL 529 NSCLC, with DMS 114 small cell lung and in the assay with M19-MEL melanoma was more than 100 µM in each case.
`CCOc1ccc([C@@H]2[C@@H](Oc3ccccc3)C(=O)N2c2cc(OC)c(OC)c(OC)c2)cc1`: the GI50 was 9.48 µM in the assay with T-47D breast and 0.0681 µM in the assay with BT-549 breast. Also, the TGI with T-47D breast and in the assay with BT-549 breast was more than 100 µM in each case.
Take `COc1ccc(Nn2c(SCC(=O)Nc3nc(-c4ccc(Cl)cc4)cs3)nc(C)c2C)cc1`: in the assay on T-47D breast, the GI50 is 1.23 µM and the TGI is 8.04 µM. For the same compound, in the assay on BT-549 breast, the GI50 was 6.46 µM and the TGI stood at 82 µM.
Take `CN(C)c1ccc(N=Cc2c([O-])ccc3ccccc23)cc1.[C-]#[O+].[C-]#[O+].[Ir]`: the GI50 in the assay with LXFL 529 NSCLC is 12.5 µM; with DMS 114 small cell lung it was 10.5 µM; with M19-MEL melanoma, 16.2 µM. For the same compound, the TGI in the assay with LXFL 529 NSCLC turned out to be 25.9 µM; in the assay on DMS 114 small cell lung, 22.8 µM; in the assay with M19-MEL melanoma, 30.9 µM.
Consider `Cc1cccc(Oc2nccc(-c3c(-c4ccc(F)cc4)ncn3C3CCNCC3)n2)c1C`, for which the GI50 was 4.92 µM in the assay on T-47D breast and 10.9 µM with BT-549 breast. Also, the TGI was 10.6 µM in the assay with T-47D breast and more than 19.6 µM in the assay on BT-549 breast.
